Legend:
U87MG tumor = test: Tumor xenograft model, U87MG, tumor growth inhibition; type: in vivo, nude mice (BALB/cA nu/nu); details: 10 mg/kg p.o. QD, day 22
[1] = In vivo pharmacokinetic study in rats
Experimental: An In Vivo Pharmacokinetic Study in Rats
For intravenous injection, rats are given a dose of 1 mg/kg. For oral administration, rats are given a dose of 5 mg/kg. […] The whole blood is centrifuged at 8000 rpm for 5 min to collect plasma, which is then transferred to 96-well pallet, and stored at −20° C. till LC-MS/MS testing.
Pharmacokinetic parameters among rats after medication are estimated using the non-compartment model of software WinNonlin.
The peak concentration, Cmax: the actual measurements are used;

VEGFR-2 (h) = VEGFR-2 (h) (Homo sapiens (Human), UniProt P35968); test: HTRF KinEASE TK kinase inhibition assay, VEGFR-2; type: biochemical
c-Met (h) = c-Met (h) (Homo sapiens (Human), UniProt P08581); test: HTRF KinEASE TK kinase inhibition assay, c-Met; type: biochemical
Axl kinase = Axl kinase (Homo sapiens (Human), UniProt P30530); test: HTRF KinEASE TK kinase inhibition assay, Axl; type: biochemical
RET = RET (Homo sapiens (Human), UniProt P07949); test: HTRF KinEASE TK kinase inhibition assay, RET; type: biochemical
Experimental: A study on inhibition of protein kinases activity at in vitro biochemical level
Material and method: kinases such as c-Met, VEGFR-2, Axl and RET, obtained from Invitrogen; HTRF KinEASE; TK kit (Cisbio Company); 384-well plate (Greiner Company); ATP (Sigma Company), MgCl2 (Sigma Company); PHERAstar FS multifunctional plate reader (BMG Company); conventional centrifuge (StaiteXiangyi Company); incubator (Binder Company).
Preparation of working solution of the compounds: Before test, aliquots of the compounds are removed from the refrigerator, and diluted with pure DMSO to 50× of the level needed; and then the compounds are diluted with deionized water to 4× of the level needed;
Preparation of 1.33× enzymatic buffer: 5× enzymatic buffer (from HTRF kit) is diluted to 1.33× with deionized water, and appropriate components of the final level 1.33× are added: 1.33 mmol/L dithiothreitol (DTT) and 1.33 mmol/L MgCl2;
Preparation of kinase working solution: Met is diluted to 2× final level required, 0.2 ng/μL, with 1.33× enzymatic buffer; […]
Reading HTRF signal: PHERAstar FS is used to read the testing signal, and its setting is as following:
For the original data read from each well, ratio=665 nm/620 nm; […]

Chain of c-Met (h) (P08581 25-1390): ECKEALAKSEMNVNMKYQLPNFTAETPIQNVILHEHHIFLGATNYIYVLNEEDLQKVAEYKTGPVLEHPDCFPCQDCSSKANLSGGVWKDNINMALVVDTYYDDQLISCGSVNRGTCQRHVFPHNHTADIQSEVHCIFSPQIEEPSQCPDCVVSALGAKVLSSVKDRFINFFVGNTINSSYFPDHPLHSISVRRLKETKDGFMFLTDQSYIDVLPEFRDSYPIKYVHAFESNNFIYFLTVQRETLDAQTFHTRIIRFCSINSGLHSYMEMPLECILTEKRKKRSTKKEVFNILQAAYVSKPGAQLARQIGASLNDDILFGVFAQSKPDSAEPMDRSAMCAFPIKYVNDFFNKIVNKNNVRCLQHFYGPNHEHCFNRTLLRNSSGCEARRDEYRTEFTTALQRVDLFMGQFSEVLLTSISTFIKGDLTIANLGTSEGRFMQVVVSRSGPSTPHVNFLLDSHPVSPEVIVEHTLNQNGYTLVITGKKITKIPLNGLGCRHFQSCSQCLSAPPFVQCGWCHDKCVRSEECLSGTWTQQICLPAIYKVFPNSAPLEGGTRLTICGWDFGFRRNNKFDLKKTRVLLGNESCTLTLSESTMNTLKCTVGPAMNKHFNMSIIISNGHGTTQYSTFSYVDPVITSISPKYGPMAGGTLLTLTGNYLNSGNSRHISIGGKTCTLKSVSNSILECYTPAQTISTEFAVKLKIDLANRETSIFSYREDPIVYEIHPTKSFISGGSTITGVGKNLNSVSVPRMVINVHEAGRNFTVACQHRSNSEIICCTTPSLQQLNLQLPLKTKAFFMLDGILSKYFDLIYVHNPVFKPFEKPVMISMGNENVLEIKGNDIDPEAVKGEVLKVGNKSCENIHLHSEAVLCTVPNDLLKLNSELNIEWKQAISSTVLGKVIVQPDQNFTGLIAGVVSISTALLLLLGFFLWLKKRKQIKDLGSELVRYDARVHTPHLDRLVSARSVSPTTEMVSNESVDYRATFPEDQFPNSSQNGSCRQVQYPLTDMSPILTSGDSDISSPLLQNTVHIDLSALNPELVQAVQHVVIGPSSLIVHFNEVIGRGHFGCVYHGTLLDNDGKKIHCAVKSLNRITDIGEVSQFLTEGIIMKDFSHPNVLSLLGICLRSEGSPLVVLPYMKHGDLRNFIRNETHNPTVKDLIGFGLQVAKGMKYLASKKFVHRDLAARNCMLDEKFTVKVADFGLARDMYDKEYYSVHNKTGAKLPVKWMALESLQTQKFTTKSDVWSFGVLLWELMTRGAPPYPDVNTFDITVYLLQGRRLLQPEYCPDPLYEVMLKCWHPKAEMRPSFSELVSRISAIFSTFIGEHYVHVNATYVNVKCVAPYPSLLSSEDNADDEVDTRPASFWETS
Chain of VEGFR-2 (h) (P35968 20-1356): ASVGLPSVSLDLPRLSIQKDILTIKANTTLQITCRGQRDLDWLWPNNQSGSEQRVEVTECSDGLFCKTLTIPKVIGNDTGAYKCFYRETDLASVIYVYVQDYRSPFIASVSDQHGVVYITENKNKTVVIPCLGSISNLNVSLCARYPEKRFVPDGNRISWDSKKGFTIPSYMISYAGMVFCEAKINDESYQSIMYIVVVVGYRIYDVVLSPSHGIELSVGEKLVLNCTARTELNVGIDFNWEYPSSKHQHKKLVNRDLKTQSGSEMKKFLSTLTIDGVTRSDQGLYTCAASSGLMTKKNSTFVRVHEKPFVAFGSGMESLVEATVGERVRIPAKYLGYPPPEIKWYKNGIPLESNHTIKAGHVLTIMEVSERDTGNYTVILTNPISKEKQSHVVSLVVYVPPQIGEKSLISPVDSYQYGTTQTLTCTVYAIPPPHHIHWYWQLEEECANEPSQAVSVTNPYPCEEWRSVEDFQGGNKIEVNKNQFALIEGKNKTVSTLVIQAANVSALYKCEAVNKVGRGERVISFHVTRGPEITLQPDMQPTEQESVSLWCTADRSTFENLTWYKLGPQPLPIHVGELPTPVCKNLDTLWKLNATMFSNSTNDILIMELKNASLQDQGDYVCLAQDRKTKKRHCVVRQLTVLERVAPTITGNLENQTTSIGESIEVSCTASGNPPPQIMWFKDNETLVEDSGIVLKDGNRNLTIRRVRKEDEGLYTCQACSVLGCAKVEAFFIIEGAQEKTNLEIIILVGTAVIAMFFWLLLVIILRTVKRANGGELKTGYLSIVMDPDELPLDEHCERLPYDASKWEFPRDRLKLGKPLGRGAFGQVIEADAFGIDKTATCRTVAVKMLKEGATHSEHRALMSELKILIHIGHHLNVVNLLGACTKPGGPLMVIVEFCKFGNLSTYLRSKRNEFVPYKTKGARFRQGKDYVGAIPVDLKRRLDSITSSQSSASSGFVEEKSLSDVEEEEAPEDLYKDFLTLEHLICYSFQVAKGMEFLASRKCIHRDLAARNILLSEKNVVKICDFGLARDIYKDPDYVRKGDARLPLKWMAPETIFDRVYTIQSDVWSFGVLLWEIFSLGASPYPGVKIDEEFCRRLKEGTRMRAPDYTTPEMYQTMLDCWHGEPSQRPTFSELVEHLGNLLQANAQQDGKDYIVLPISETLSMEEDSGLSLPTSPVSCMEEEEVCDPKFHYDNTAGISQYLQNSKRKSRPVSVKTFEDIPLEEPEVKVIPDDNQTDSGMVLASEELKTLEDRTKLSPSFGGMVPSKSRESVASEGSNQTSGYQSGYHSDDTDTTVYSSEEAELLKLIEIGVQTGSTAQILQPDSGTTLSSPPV
Chain of Axl kinase (P30530 26-894): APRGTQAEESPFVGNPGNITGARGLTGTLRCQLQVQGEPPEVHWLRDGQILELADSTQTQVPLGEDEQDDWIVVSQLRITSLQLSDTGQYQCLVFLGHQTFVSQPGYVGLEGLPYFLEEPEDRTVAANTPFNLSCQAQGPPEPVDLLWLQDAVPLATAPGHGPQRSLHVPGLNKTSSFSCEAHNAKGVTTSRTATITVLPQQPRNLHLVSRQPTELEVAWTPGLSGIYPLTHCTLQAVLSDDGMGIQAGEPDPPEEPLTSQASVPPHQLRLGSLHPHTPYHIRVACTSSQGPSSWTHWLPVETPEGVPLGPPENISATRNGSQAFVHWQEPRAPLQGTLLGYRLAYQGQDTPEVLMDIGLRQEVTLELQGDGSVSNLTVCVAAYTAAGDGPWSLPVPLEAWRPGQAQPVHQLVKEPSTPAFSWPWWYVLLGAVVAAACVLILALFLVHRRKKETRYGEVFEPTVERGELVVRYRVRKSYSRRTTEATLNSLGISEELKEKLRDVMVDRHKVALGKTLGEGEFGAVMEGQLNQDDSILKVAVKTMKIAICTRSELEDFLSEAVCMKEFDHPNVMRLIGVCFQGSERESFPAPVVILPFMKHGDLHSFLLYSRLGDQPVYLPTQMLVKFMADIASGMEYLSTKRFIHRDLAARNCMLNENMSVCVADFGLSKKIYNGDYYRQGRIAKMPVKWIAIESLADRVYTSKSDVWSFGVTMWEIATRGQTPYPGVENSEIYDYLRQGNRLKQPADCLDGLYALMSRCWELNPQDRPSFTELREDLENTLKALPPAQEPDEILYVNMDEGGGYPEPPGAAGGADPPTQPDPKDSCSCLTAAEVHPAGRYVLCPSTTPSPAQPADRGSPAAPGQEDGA
Chain of RET (P07949 29-1114): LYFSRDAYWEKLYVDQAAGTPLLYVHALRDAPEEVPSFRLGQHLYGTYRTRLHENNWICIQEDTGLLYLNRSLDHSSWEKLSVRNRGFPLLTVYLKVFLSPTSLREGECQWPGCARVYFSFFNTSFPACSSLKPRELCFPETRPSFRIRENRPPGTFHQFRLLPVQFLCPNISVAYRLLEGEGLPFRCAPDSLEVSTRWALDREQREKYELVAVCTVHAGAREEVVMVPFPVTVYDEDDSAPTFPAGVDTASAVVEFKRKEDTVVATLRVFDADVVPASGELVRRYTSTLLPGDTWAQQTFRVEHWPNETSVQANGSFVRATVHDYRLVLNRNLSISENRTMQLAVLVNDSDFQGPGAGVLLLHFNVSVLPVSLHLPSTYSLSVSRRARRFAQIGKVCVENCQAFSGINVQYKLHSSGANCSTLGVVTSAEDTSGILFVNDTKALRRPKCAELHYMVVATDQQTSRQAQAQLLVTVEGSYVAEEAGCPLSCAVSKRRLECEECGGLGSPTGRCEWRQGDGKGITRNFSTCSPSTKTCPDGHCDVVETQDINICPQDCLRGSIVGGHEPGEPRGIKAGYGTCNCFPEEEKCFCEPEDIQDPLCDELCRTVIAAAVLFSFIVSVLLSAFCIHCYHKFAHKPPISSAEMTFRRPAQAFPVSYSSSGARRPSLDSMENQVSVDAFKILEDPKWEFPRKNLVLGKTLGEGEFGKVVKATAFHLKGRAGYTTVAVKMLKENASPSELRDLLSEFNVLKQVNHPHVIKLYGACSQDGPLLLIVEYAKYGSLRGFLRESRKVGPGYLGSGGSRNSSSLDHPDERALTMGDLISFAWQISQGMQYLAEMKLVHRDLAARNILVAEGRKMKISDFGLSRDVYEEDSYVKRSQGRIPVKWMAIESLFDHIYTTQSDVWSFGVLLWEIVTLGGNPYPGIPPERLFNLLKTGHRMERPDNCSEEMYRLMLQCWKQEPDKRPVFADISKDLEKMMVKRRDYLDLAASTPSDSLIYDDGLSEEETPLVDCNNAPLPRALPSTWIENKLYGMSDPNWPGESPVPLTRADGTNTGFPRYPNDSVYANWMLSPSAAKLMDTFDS

SMILES | IC50 (VEGFR-2 (h)) [nM] | IC50 (c-Met (h)) [nM] | also measured
COc1ccc2c(Oc3ccc(Nc4nccc5[nH]cc(-c6ccc(F)cc6)c(=O)c45)cc3F)ccnc2c1 [Comparative compound A, reference compound] | – | – | Tumor growth inhibition rate, % TGI (U87MG tumor): 55.3%
O=c1c(-c2ccc(F)cc2)c[nH]c2ccnc(Nc3ccc(Oc4ccnc5cc(OCCO)ccc45)c(F)c3)c12 [Comparative compound C, reference compound] | – | – | CL ([1]; 5 mg/kg i.g.): 1.90 L/h/kg; Vz ([1]; 5 mg/kg i.g.): 7.89 L/kg; AUC(0-t) ([1]; rat, plasma, iv, 1 mg/kg i.v.): 2290 ng·h/mL; Cmax ([1]; rat, plasma, iv, 1 mg/kg i.v.): 970 ng/mL; clearance ([1]; rat, plasma, iv, 1 mg/kg i.v.): 4.83 mL/min/kg; half-life ([1]; rat, plasma, iv, 1 mg/kg i.v.): 141 min; Vd ([1]; rat, plasma, iv, 1 mg/kg i.v., read-out: Vz): 1.21 L/kg; bioavailability ([1]; rat, plasma, oral, 5 mg/kg i.g. vs 1 mg/kg i.v., read-out: F (absolute bioavailability)): 16.2%; AUC(0-t) ([1]; rat, plasma, po, 5 mg/kg i.g.): 1850 ng·h/mL; Cmax ([1]; rat, plasma, po, 5 mg/kg i.g.): 530 ng/mL; half-life ([1]; rat, plasma, po, 5 mg/kg i.g.): 128 min
COC(C)(C)COc1ccc2c(Oc3ccc(Nc4nccc5[nH]cc(-c6ccc(F)cc6)c(=O)c45)cc3F)ccnc2c1 [Comparative compound D, reference compound] | 60 | – | –
COc1cc2c(Oc3ccc(Nc4nccc5[nH]cc(-c6ccc(F)cc6)c(=O)c45)cc3F)ccnc2cc1OCC(C)(C)O [Example 1, 5-((3-fluoro-4-((7-(2-hydroxy-2-methylpropoxy)-6-methoxyquinolin-4-yl)oxy)-phenyl)amino)-3-(4-fluorophenyl)-1,6-naphthyridin-4(1H)-one] | – | 19.4 | –
COc1cc2c(Oc3ccc(Nc4nccc5[nH]cc(-c6ccc(F)cc6)c(=O)c45)cc3F)ccnc2cc1OCC(C)O (centres unmarked) [Example 2, 5-((3-fluoro-4-((7-(2-hydroxypropoxy)-6-methoxyquinolin-4-yl)oxy)phenyl)-amino)-3-(4-fluorophenyl)-1,6-naphthyridin-4(1H)-one] | – | 15.6 | –
COc1cc2c(Oc3ccc(Nc4nccc5[nH]cc(-c6ccccc6)c(=O)c45)cc3F)ccnc2cc1OCC(C)(C)O [Example 3, 5-((3-fluoro-4-((7-(2-hydroxy-2-methylpropoxy)-6-methoxyquinolin-4-yl)oxy)-phenyl)amino)-3-phenyl-1,6-naphthyridin-4(1H)-one] | – | 20.1 | –
CC(C)(O)COc1ccc2c(Oc3ccc(Nc4nccc5[nH]cc(-c6ccccc6F)c(=O)c45)cc3F)ccnc2c1 [Example 5, 5-((3-fluoro-4-((7-(2-hydroxy-2-methylpropoxy)quinolin-4-yl)oxy)phenyl)amino)-3-(2-fluorophenyl)-1,6-naphthyridin-4(1H)-one] | – | 9.4 | –
CC(C)(O)COc1ccc2c(Oc3ccc(Nc4nccc5[nH]cc(-c6cccc(F)c6)c(=O)c45)cc3F)ccnc2c1 [Example 6, 5-((3-fluoro-4-((7-(2-hydroxy-2-methylpropoxy)quinolin-4-yl)oxy)phenyl)amino)-3-(3-fluorophenyl)-1,6-naphthyridin-4(1H)-one] | – | 7.9 | –
CC(C)(O)COc1ccc2c(Oc3ccc(Nc4nccc5[nH]cc(-c6ccccc6)c(=O)c45)cc3F)ccnc2c1 [Example 7, 5-((3-fluoro-4-((7-(2-hydroxy-2-methylpropoxy)quinolin-4-yl)oxy)phenyl)amino)-3-phenyl-1,6-naphthyridin-4(1H)-one] | – | 7.4 | IC50 (Axl kinase): 14.9 nM; IC50 (RET): 53 nM
COc1cc2nccc(Oc3ccc(Nc4nccc5[nH]cc(-c6ccc(F)cc6)c(=O)c45)cc3F)c2cc1OCC(C)(C)O [Example 8, 5-((3-fluoro-4-((6-(2-hydroxy-2-methylpropoxy)-7-methoxyquinolin-4-yl)oxy)-phenyl)amino)-3-(4-fluorophenyl)-1,6-naphthyridin-4(1H)-one] | – | 16.8 | –
COc1cc2nccc(Oc3ccc(Nc4nccc5[nH]cc(-c6ccccc6)c(=O)c45)cc3F)c2cc1OCC(C)(C)O [Example 9, 5-((3-fluoro-4-((6-(2-hydroxy-2-methylpropoxy)-7-methoxyquinolin-4-yl)oxy)-phenyl)amino)-3-phenyl-1,6-naphthyridin-4(1H)-one] | – | 13.3 | –
Cn1cc(-c2ccc(F)cc2)c(=O)c2c(Nc3ccc(Oc4ccnc5cc(OCC(C)(C)O)ccc45)c(F)c3)nccc21 [Example 10, 5-((3-fluoro-4-((7-(2-hydroxy-2-methylpropoxy)quinolin-4-yl)oxy)phenyl)amino)-3-(4-fluorophenyl)-1-methyl-1,6-naphthyridin-4(1H)-one] | > 5000 | 12.7 | –
CCn1cc(-c2ccc(F)cc2)c(=O)c2c(Nc3ccc(Oc4ccnc5cc(OCC(C)(C)O)ccc45)c(F)c3)nccc21 [Example 11, 1-ethyl-5-((3-fluoro-4-((7-(2-hydroxy-2-methylpropoxy)quinolin-4-yl)oxy)phenyl)-amino)-3-(4-fluorophenyl)-1,6-naphthyridin-4(1H)-one] | > 5000 | 9.5 | –
CCCn1cc(-c2ccc(F)cc2)c(=O)c2c(Nc3ccc(Oc4ccnc5cc(OCC(C)(C)O)ccc45)c(F)c3)nccc21 [Example 12, 5-((3-fluoro-4-((7-(2-hydroxy-2-methylpropoxy)quinolin-4-yl)oxy)phenyl)amino)-3-(4-fluorophenyl)-1-propyl-1,6-naphthyridin-4(1H)-one] | > 5000 | 7.2 | –
CC(C)n1cc(-c2ccc(F)cc2)c(=O)c2c(Nc3ccc(Oc4ccnc5cc(OCC(C)(C)O)ccc45)c(F)c3)nccc21 [Example 13, 5-((3-fluoro-4-((7-(2-hydroxy-2-methylpropoxy)quinolin-4-yl)oxy)phenyl)amino)-3-(4-fluorophenyl)-1-isopropyl-1,6-naphthyridin-4(1H)-one] | > 5000 | 9 | –
CC(C)(O)COc1ccc2c(Oc3ccc(Nc4nccc5c4c(=O)c(-c4ccc(F)cc4)cn5C4CC4)cc3F)ccnc2c1 [Example 14, 1-cyclopropyl-5-((3-fluoro-4-((7-(2-hydroxy-2-methylpropoxy)quinolin-4-yl)oxy)-phenyl)amino)-3-(4-fluorophenyl)-1,6-naphthyridin-4(1H)-one] | > 5000 | 14.3 | –
CC(C)(O)COc1ccc2c(Oc3ccc(Nc4nccc5c4c(=O)c(-c4ccc(F)cc4)cn5CC4CO4)cc3F)ccnc2c1 (centres unmarked) [Example 15, 5-((3-fluoro-4-((7-(2-hydroxy-2-methylpropoxy)quinolin-4-yl)oxy)phenyl)amino)-3-(4-fluorophenyl)-1-(oxiran-2-ylmethyl)-1,6-naphthyridin-4(1H)-one] | > 5000 | 22.4 | –
COCCn1cc(-c2ccc(F)cc2)c(=O)c2c(Nc3ccc(Oc4ccnc5cc(OCC(C)(C)O)ccc45)c(F)c3)nccc21 [Example 16, 5-((3-fluoro-4-((7-(2-hydroxy-2-methylpropoxy)quinolin-4-yl)oxy)phenyl)amino)-3-(4-fluorophenyl)-1-(2-methoxyethyl)-1,6-naphthyridin-4(1H)-one] | > 5000 | 14.4 | –
CC(C)(O)COc1ccc2c(Oc3ccc(Nc4nccc5c4c(=O)c(-c4ccc(F)cc4)cn5CCO)cc3F)ccnc2c1 [Example 17, 5-((3-fluoro-4-((7-(2-hydroxy-2-methylpropoxy)quinolin-4-yl)oxy)phenyl)amino)-3-(4-fluorophenyl)-1-(2-hydroxyethyl)-1,6-naphthyridin-4(1H)-one] | > 5000 | 40 | –
CC(C)(O)COc1ccc2c(Oc3ccc(Nc4nccc5c4c(=O)c(-c4ccc(F)cc4)cn5Cc4ccccc4)cc3F)ccnc2c1 [Example 18, 1-benzyl-5-((3-fluoro-4-((7-(2-hydroxy-2-methylpropoxy)quinolin-4-yl)oxy)phenyl)-amino)-3-(4-fluorophenyl)-1,6-naphthyridin-4(1H)-one] | > 5000 | 40.3 | –

— patent US9938274B1, “Naphthyridine compounds, medical combinations and use thereof” (Nanjing Natinefy Pharmatech Co., Ltd., priority 2016, dated 2018)
